Measured values as given in US11504425B2, “Amphiphilic oligodeoxynucleotide conjugates as adjuvant enhancers” (WAYNE STATE UNIVERSITY, priority 2019, dated 2022).

Assays:
Type in all cases: cell-based
human PBMC = experiment: Cytokine secretion by human PBMC (ELISA); conditions: 24 h
Description: Whole blood was obtained from the Red Cross, where healthy volunteers had provided informed consent to donate blood. Peripheral blood mononuclear cells (PBMC) were isolated by density gradient centrifugation using Histopaque-1077 (Sigma-Aldrich). The mononuclear cells were washed twice with cold PBS (1×) and resuspended in completed RPMI-1640 supplemented with 10% FBS and 1% penicillin/streptomycin. PBMC were seeded at 2×10^6/ml in 200 μL in a 96-well plate.
Supernatants collected from splenocytes suspension or human PBMC suspension after incubation were separately analyzed for IL-6, IL-12p40, TNF-α, and IFN-α by ELISA following manufacturer's instructions.

mouse TLR7 (mTLR7) = biological target: T1, mouse TLR7 (mTLR7) (Mus musculus, UniProt P58681); experiment: HEK mTLR7 reporter cells NF-κB/SEAP; conditions: ligands at indicated concentrations + 1 μM ODN, 24 h
T1 construct: host or cells: HEK-Blue-mTLR7 (HEK293)
T1 sequence (P58681 27-1050): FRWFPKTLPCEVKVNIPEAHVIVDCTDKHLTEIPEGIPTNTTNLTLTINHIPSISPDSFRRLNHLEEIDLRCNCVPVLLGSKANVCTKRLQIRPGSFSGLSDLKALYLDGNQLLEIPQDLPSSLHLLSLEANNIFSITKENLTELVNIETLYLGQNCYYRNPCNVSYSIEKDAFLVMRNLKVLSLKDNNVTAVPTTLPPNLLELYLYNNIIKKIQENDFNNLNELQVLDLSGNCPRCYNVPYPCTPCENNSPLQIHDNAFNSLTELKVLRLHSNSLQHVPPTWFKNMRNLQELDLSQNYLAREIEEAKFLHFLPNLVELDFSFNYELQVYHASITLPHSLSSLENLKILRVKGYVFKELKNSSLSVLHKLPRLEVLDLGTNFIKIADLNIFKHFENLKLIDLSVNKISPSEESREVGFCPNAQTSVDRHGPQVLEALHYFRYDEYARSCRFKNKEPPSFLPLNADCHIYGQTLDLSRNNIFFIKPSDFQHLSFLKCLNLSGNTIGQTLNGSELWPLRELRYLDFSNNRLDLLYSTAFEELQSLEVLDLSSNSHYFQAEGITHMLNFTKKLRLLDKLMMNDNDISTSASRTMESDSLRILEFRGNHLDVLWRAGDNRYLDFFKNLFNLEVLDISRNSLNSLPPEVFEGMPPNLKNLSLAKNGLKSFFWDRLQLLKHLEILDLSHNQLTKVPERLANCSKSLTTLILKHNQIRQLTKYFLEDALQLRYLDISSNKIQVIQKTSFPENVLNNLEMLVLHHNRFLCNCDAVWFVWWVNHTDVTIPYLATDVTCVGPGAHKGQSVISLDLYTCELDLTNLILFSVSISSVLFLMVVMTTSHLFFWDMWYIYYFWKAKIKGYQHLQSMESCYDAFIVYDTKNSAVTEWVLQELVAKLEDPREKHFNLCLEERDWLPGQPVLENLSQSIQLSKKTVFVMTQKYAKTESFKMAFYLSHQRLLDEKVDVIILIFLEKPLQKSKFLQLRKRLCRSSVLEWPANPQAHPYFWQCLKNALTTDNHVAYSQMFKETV
Description: (§1) HEK-Blue™-mTLR7, mTLR8, hTLR7, hTLR8, and RAW-Blue™ cells were purchased from InvivoGen and were used to evaluate bioactivities of lipo ODNs and TLR 7/8 ligands in vitro. All these cell lines were cultured with DMEM supplemented with 10% FBS, 1% P/S and 100 μg/mL Normocin at 37° C. with 5% CO2. […] After incubating for 24 h, SEAP levels were quantified by developing supernatants with QuantiBlue™ substrate for 1 h and reading absorption at 620 nm, following manufacturer's instructions.
Raw Blue cells which respond to both murine TLR-7 and TLR-8 are also included to assess the overall modulatory effect. half-maximal effective concentration (EC50) and potency of several classic TLR7/8 ligands were evaluated in murine TLR7 and TLR8 reporter cells.

human TLR7 (hTLR7) = biological target: T2, human TLR7 (hTLR7) (Homo sapiens, UniProt Q9NYK1); experiment: HEK hTLR7 reporter cells NF-κB/SEAP; conditions: IMQ at indicated concentrations + 1 μM ODN, 24 h
T2 construct: host or cells: HEK-Blue-hTLR7 (HEK293)
T2 sequence (Q9NYK1 27-1049): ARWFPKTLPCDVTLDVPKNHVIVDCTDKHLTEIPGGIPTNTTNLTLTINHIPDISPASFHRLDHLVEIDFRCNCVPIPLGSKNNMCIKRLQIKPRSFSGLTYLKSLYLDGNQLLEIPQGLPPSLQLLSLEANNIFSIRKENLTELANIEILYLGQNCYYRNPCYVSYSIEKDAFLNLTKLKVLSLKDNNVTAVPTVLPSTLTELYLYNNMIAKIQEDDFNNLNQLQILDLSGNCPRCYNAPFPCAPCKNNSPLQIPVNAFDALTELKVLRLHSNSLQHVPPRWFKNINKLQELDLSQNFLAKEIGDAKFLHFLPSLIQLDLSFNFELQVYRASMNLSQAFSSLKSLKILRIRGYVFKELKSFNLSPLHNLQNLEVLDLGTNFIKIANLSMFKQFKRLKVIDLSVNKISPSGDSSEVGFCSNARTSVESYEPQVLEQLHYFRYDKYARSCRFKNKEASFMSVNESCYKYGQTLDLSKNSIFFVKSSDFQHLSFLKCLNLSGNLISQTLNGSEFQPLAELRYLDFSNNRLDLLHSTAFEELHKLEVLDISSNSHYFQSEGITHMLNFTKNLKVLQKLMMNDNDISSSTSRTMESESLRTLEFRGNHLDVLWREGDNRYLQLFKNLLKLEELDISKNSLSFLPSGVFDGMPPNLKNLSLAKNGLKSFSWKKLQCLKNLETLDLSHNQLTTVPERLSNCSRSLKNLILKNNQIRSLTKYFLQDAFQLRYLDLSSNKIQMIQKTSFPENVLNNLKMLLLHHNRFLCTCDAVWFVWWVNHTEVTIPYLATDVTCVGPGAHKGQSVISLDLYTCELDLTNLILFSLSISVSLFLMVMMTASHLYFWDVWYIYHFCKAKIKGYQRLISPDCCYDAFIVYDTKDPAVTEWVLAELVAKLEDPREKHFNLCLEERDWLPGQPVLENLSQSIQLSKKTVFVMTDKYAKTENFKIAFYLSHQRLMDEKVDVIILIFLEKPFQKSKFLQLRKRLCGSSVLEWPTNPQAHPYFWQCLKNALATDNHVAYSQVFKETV
Description: as §1
HEK293 cells transfected with human TLR7 or 8 were used. The cells were stimulated with IMQ in the presence of several inhibitory oligonucleotides reported in the literature. […] In contrast, all the unmodified ODNs maintained their inhibitory function, reducing the NF-κB secretion to basal levels (FIG. 8A). We then plotted the IMQ dose response curve in human TLR-7 transfected HEK293 cells.

5′-TTTTTTTTTTTTTTTTTTTT-3′ [T20]
IFN-α production (human PBMC; CL264 + ODN): completely abrogated IFN-α production | IL-12 production (human PBMC; TLR8-506 + ODN): able to augment the IL-12 production | mTLR7 activation by IMQ, CL075, R848 in the presence of the ODN (mouse TLR7 (mTLR7)): suppressed the TLR-7 activation | IMQ dose response in hTLR7 cells in the presence of the ODN (human TLR7 (hTLR7)): completely abrogated the immune activation by IMQ
